Test results: patent US20240150358A1, “PURINES AND METHODS OF THEIR USE” (Kineta, Inc., priority 2020, published 2024)

Each molecule was assayed against full-length human PIKFYVE (Homo sapiens (Human), UniProt Q9Y2I7, L932S/Q1183K/Q995L/S1033A/S696N/T998S) (assay: PIKfyve biochemical assay (ADP-Glo Kinase assay, Carna Biosciences)). Conditions: ADP-Glo, GST-PIKFYVE, 10 μM to 3 nM; read-out: hPIKfyve IC50.
Method: (§1) PIKfyve Biochemical Assay. The biochemical PIKFyve inhibition assays were run by Carna Biosciences according to proprietary methodology based on the Promega ADP-Glo™ Kinase assay. […] GST-PIKFYVE was purified by using glutathione sepharose chromatography and used in an ADP-Glo™ Kinase assay (Promega). Reactions were set up by adding the test compound solution, substrate solution, ATP solution and kinase solution, each at 4× final concentrations. Reactions were prepared with assay buffer (50 mM MOPS, 1 mM DTT, pH7.2), mixed, and incubated in black 384 well polystyrene plates for 1 hour at room temperature. ADPGlo™ reagent was then added for 40 minutes, followed by kinase detection reagent for an additional 40 minutes. The kinase activity was evaluated by detecting relative light units on a luminescence plate reader. Samples were run in duplicate from 10 μM to 3 nM. […] IC50 values were calculated from concentration vs % inhibition curves by fitting to a four-parameter logistic curve.
as §1, with “The” for “PIKfyve Biochemical Assay. The”, “ADP-Glo™” for “ADPGlo™”, “uM” for “μM”, “curve. […]” for “curve.”

Chain of full-length human PIKFYVE (Q9Y2I7 whole entry S696N/L932S/Q995L/T998S/S1033A/Q1183K): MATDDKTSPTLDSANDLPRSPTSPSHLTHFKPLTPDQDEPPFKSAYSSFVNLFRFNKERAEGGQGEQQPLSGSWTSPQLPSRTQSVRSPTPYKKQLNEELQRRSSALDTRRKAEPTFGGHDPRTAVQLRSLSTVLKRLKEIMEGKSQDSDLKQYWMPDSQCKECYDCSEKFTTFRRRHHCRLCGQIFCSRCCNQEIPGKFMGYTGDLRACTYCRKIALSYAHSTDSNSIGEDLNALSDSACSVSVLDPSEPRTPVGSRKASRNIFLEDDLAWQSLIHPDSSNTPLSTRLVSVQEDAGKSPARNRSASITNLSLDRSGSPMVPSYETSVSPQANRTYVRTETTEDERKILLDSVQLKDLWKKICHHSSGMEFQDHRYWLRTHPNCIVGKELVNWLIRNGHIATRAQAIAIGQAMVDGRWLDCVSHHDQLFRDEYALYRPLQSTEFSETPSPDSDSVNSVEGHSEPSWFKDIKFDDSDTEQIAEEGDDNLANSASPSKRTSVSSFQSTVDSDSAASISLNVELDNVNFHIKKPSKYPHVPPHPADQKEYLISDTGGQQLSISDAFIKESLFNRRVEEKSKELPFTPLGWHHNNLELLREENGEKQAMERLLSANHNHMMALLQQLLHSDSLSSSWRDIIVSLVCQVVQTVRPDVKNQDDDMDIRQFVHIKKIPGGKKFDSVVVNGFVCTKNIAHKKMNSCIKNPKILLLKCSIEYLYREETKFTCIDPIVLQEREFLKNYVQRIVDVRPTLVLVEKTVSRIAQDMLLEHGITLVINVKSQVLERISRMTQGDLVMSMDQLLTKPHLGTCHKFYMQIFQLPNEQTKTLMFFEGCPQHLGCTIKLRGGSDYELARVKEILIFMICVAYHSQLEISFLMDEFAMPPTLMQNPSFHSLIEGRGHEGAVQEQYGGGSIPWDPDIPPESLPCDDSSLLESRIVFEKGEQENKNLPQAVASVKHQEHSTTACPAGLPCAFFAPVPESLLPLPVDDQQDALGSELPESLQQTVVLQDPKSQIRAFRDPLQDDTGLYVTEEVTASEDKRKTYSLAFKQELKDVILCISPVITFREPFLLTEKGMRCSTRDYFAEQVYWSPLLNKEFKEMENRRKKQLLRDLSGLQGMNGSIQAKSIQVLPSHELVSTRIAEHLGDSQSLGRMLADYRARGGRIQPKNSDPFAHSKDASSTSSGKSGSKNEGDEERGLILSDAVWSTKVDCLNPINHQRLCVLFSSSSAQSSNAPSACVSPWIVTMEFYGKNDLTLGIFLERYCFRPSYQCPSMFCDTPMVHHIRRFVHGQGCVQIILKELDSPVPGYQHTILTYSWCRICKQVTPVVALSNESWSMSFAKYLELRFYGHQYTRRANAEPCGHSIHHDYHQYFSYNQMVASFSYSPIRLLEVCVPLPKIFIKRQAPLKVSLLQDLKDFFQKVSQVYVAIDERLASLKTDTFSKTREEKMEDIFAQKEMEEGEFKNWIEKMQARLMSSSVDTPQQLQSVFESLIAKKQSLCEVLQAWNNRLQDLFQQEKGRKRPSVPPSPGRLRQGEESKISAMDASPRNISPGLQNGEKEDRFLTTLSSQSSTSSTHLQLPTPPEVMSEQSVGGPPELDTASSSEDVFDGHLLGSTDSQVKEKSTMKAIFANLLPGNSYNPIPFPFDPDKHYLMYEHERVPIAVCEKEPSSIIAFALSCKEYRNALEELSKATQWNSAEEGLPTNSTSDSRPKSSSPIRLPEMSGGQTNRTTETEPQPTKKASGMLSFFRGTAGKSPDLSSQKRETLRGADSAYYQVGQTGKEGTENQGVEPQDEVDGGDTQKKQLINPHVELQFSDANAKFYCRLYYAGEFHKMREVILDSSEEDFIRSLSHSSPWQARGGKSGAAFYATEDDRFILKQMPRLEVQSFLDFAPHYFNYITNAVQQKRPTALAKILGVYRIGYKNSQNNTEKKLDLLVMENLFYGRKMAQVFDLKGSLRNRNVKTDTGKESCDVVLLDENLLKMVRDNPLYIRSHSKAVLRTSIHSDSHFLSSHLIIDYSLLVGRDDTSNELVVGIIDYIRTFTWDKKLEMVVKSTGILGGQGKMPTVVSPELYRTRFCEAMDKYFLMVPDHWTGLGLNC

Q: CN1CC(c2nc3c(N4CCOCC4)nc(-n4ccc(-c5ccccc5)n4)nc3n2C)C1 [Compound 81, 4-(9-methyl-8-(1-methylazetidin-3-yl)-2-(3-phenyl-1H-pyrazol-1-yl)-9H-purin-6-yl)morpholine] was tested. Which IC50 did it give?
A: 0.1 to 1 µM

Q: Which IC50 does the source give for Cn1c(-c2ccncc2)nc2c(N3CCOCC3)nc(-n3ccc(C4CCN(C(=O)OC(C)(C)C)C4)n3)nc21 (stereo not shown) [Compound 40] here?
A: 0.1 to 1 µM

Q: For Cn1c(-c2ccncc2)nc2c(N3CCOCC3)nc(-c3noc(C4CCCNC4)n3)nc21 (stereo not shown) [Compound 31], which IC50 is on record?
A: 0.1 to 1 µM

Q: c1cc(-c2nc3c(N4CCOCC4)nc(-n4ccc(C5CCCNC5)n4)nc3[nH]2)ccn1 (stereo not shown) [Compound 22] was tested. Which IC50 did it give?
A: 0.01 to 0.1 µM

Q: CN1CCC(c2ccn(-c3nc(N4CCOCC4)c4nc(-c5ccncc5)n(C)c4n3)n2)CC1 [Compound 18] was tested. Which IC50 did it give?
A: 0.1 to 1 µM

Q: How did the IC50 turn out when CC1CC(c2cccc(-c3nc(N4CCOCC4)c4nc(-c5ccncc5)n(C)c4n3)n2)CCN1 (stereo not shown) [Compound 91, 4-(9-methyl-2-(6-(2-methylpiperidin-4-yl)pyridin-2-yl)-8-(pyridin-4-yl)-9H-purin-6-yl)morpholine] was run?
A: 0.1 to 1 µM

Q: Which IC50 does the source give for Cn1c(-c2ccncc2)nc2c(N3CCOCC3)nc(-n3ccc(C4CCCN(C(=O)OC(C)(C)C)C4)n3)nc21 (stereo not shown) [Compound 29] here?
A: 0.1 to 1 µM

Q: With Cn1c(-c2ccncc2)nc2c(N3CCOCC3)ncnc21 [Compound 8] as the molecule, how does the IC50 read?
A: 0.1 to 1 µM

Q: For CN1CCCC(c2ccn(-c3nc(N4CCOCC4)c4nc(C5CCOCC5)n(C)c4n3)n2)C1 (stereo not shown) [Compound 15], which IC50 is on record?
A: 1 to 10 µM

Q: With Cn1c(-c2ccncc2)nc2c(N3CCOCC3)nc(-n3ccc(CC4CN(C(=O)OC(C)(C)C)C4)n3)nc21 [Compound 84, tert-butyl 3-((1-(9-methyl-6-morpholino-8-(pyridin-4-yl)-9H-purin-2-yl)-1H-pyrazol-3-yl)methyl)azetidine-1-carboxylate] as the molecule, how does the IC50 read?
A: 0.01 to 0.1 µM

Q: With COc1ccc(-c2nc(N3CCOCC3)c3nc(-c4ccncc4)n(C)c3n2)cc1OC [Compound 106, 4-(2-(3,4-dimethoxyphenyl)-9-methyl-8-(pyridin-4-yl)-9H-purin-6-yl)morpholine] as the molecule, how does the IC50 read?
A: < 0.01 µM

Q: Which IC50 does the source give for Cc1cccc(/C=N/Nc2nc(N3CCOCC3)c3nc(-c4ccncc4)oc3n2)c1 [Compound 120] here?
A: < 0.01 µM

Q: Which IC50 does the source give for Cn1c(-c2ccncc2)nc2c(N3CCOCC3)nc(-c3ccn(-c4ccccc4)n3)nc21 [Compound 46, 9-methyl-6-(morpholin-4-yl)-2-(1-phenyl-1H-pyrazol-3-yl)-8-(pyridin-4-yl)-9H-purine] here?
A: 0.01 to 0.1 µM

Q: With Cn1c(-c2ccncc2)nc2c(N3CCOCC3)nc(-n3ccc(C4CCNC4)n3)nc21 (stereo not shown) [Compound 38] as the molecule, how does the IC50 read?
A: 0.1 to 1 µM

Q: For FC(F)n1c(-c2ccncc2)nc2c(N3CCOCC3)nc(-c3ccnc(-c4ccccc4)n3)nc21 [Compound 105, 4-(9-(difluoromethyl)-2-(2-phenylpyrimidin-4-yl)-8-(pyridin-4-yl)-9H-purin-6-yl)morpholine], which IC50 is on record?
A: 1 to 10 µM

Q: With Cn1c(-c2ccncc2)nc2c(N3CCOCC3)nc(-c3ccc4c(c3)OCO4)nc21 [Compound 99, 4-(2-(benzo[d][1,3]dioxol-5-yl)-9-methyl-8-(pyridin-4-yl)-9H-purin-6-yl)morpholine] as the molecule, how does the IC50 read?
A: 0.01 to 0.1 µM

Q: How did the IC50 turn out when Cn1c(C2=CCOCC2)nc2c(N3CCOCC3)nc(-n3ccc(-c4cccc(C#N)c4)n3)nc21 [Compound 36, 3-{1-[8-(3,6-dihydro-2H-pyran-4-yl)-9-methyl-6-(morpholin-4-yl)-9H-purin-2-yl]-1H-pyrazol-3-yl}benzonitrile] was run?
A: 1 to 10 µM

Q: For Cn1c(-c2ccncc2)nc2c(N3CCOCC3)nc(-c3ccn(C4CCCN(C(=O)OC(C)(C)C)C4)n3)nc21 (stereo not shown) [Compound 43], which IC50 is on record?
A: 0.1 to 1 µM

Q: Cn1c(-c2ccncc2)nc2c(N3CCOCC3)nc(-c3cc[nH]n3)nc21 [Compound 49] was tested. Which IC50 did it give?
A: 0.01 to 0.1 µM

Q: With Cn1c(-c2ccncc2)nc2c(N3CCOCC3)nc(-c3ccc4c(c3)OCCO4)nc21 [Compound 45] as the molecule, how does the IC50 read?
A: 0.01 to 0.1 µM

Q: CN1CCCC(c2nc(-c3nc(N4CCOCC4)c4nc(-c5ccncc5)n(C)c4n3)no2)C1 (stereo not shown) [Compound 30] was tested. Which IC50 did it give?
A: 0.1 to 1 µM

Q: Which IC50 does the source give for Cn1c(C2CCCNC2)nc2c(N3CCOCC3)nc(-n3ccc(-c4ccccc4)n3)nc21 (stereo not shown) [Compound 10] here?
A: 0.1 to 1 µM

Q: Which IC50 does the source give for Cn1c(-c2ccncc2)nc2nc(-c3ccnc(-c4ccccc4)n3)nc(N3CCOCC3)c21 [Compound 2, 7-methyl-6-(morpholin-4-yl)-2-(2-phenylpyrimidin-4-yl)-8-(pyridin-4-yl)-7H-purine] here?
A: 1 to 10 µM

Q: Cn1c(-c2ccncc2)nc2c(N3CCOCC3)nc(-c3ccc4c(c3)NCCC4)nc21 [Compound 114, 4-(9-methyl-8-(pyridin-4-yl)-2-(1,2,3,4-tetrahydroquinolin-7-yl)-9H-purin-6-yl)morpholine] was tested. Which IC50 did it give?
A: < 0.01 µM

Q: Cn1c(-c2ccncc2)nc2c(N3CCOCC3)nc(-c3ccnc(C4CCCNC4)n3)nc21 (stereo not shown) [Compound 95, 4-(9-methyl-2-(2-(piperidin-3-yl)pyrimidin-4-yl)-8-(pyridin-4-yl)-9H-purin-6-yl)morpholine] was tested. Which IC50 did it give?
A: 0.1 to 1 µM

Q: How did the IC50 turn out when Cn1c(C2CCOCC2)nc2c(N3CCOCC3)nc(-n3ccc(-c4cccnc4)n3)nc21 [Compound 19, 4-(9-methyl-2-(3-(pyridin-3-yl)-1H-pyrazol-1-yl)-8-(tetrahydro-2H-pyran-4-yl)-9H-purin-6-yl)morpholine] was run?
A: 1 to 10 µM

Q: With Cn1c(-c2ccncc2)nc2c(N3CCOCC3)nc(C3CC3)nc21 [Compound 110, 4-(2-cyclopropyl-9-methyl-8-(pyridin-4-yl)-9H-purin-6-yl)morpholine] as the molecule, how does the IC50 read?
A: < 0.01 µM

Q: Which IC50 does the source give for Cn1c(-c2ccncc2)nc2c(N3CCOCC3)nc(-c3cccc(C4CCNCC4)n3)nc21 [Compound 3] here?
A: 0.01 to 0.1 µM

Q: Cn1c(-c2ccncc2)nc2c(N3CCOCC3)nc(-n3cc(-c4ccccc4)cn3)nc21 [Compound 92, 4-(9-methyl-2-(4-phenyl-1H-pyrazol-1-yl)-8-(pyridin-4-yl)-9H-purin-6-yl)morpholine] was tested. Which IC50 did it give?
A: 0.01 to 0.1 µM

Q: Which IC50 does the source give for Cn1c(-c2ccncc2)nc2c(N3CCOCC3)nc(-c3cccc(C4CCN(C(=O)OC(C)(C)C)CC4)n3)nc21 [Compound 4] here?
A: 0.1 to 1 µM

Q: Cn1c(-c2ccncc2)nc2c(N3CCOCC3)nc(-c3ccnc(C(F)(F)F)n3)nc21 [Compound 94, 4-(9-methyl-8-(pyridin-4-yl)-2-(2-(trifluoromethyl)pyrimidin-4-yl)-9H-purin-6-yl)morpholine] was tested. Which IC50 did it give?
A: 0.01 to 0.1 µM

Q: Which IC50 does the source give for Cn1c(C2CCOCC2)nc2c(N3CCOCC3)nc(-n3ccc(-c4cccc(C#N)c4)n3)nc21 [Compound 39] here?
A: 1 to 10 µM

Q: How did the IC50 turn out when Cn1c(C2CCNC2)nc2c(N3CCOCC3)nc(-n3ccc(-c4ccccc4)n3)nc21 (stereo not shown) [Compound 90, 4-(9-Methyl-2-(3-phenyl-1H-pyrazol-1-yl)-8-(pyrrolidin-3-yl)-9H-purin-6-yl)morpholine] was run?
A: 0.01 to 0.1 µM

Q: For Cn1c(-c2ccncc2)nc2c(N3CCOCC3)nc(-c3ccnc(C4CCNCC4)n3)nc21 [Compound 108, 4-(9-methyl-2-(2-(piperidin-4-yl)pyrimidin-4-yl)-8-(pyridin-4-yl)-9H-purin-6-yl)morpholine], which IC50 is on record?
A: < 0.01 µM

Q: How did the IC50 turn out when Cc1cccc(/C=N/Nc2nc(N3CCOCC3)c3nc(-c4ccncc4)sc3n2)c1 [Compound 121] was run?
A: < 0.01 µM

Q: With Cn1c(-c2ccncc2)nc2c(N3CCOCC3)nc(-n3ccc(C4CCNCC4)n3)nc21 [Compound 21] as the molecule, how does the IC50 read?
A: 0.01 to 0.1 µM

Q: With Cn1c(C2CCOCC2)nc2c(N3CCOCC3)nc(-c3noc(-c4ccccc4)n3)nc21 [Compound 89, 4-(9-methyl-2-(5-phenyl-1,2,4-oxadiazol-3-yl)-8-(tetrahydro-2H-pyran-4-yl)-9H-purin-6-yl)morpholine] as the molecule, how does the IC50 read?
A: 0.1 to 1 µM

Q: Which IC50 does the source give for CC(C)c1ccn(-c2nc(N3CCOCC3)c3nc(-c4ccncc4)n(C)c3n2)n1 [Compound 23] here?
A: 0.1 to 1 µM

Q: Cn1c(-c2ccncc2)nc2c(N3CCOCC3)nc(-c3cccnc3)nc21 [Compound 104, 4-(9-methyl-2-(pyridin-3-yl)-8-(pyridin-4-yl)-9H-purin-6-yl)morpholine] was tested. Which IC50 did it give?
A: 0.01 to 0.1 µM

Same assay, conditions: values plotted in FIG. 7; read-out: PIKFYVE Biochemistry (IC50)

Q: c1ccc(-c2nc(-c3cc(N4CCOCC4)nc(OCc4ccncc4)n3)no2)cc1 was tested. Which IC50 did it give?
A: > 10 µM
